Data taken from PubChem BioAssay AID1963973 (Molecular Pharmacology Branch, DTP, NCI, 2024).

Test system: 883617-216-R-J1-PDC tumor spheroids, viability
Experiment: Anticancer human tumor 883617-216-R-J1-PDC patient-derived bladder carcinoma cell line growth inhibition [PI3K]
Settings: spheroids with HUVEC and MSC; for IC50: curve of first compound; for viability, T/C: stronger effect = lower value
Excerpt: Combinatorial screen of targeted agents with the PI3K inhibitors inavolisib, alpelisib, duvelisib, and copanlisib in multi-cell type tumor spheroids
A high-throughput screen of multi-cell type tumor spheroids was designed to identify active combinations of targeted small molecules and PI3K pathway inhibitors. Complex spheroids include a stromal component modeled by human endothelial cells (HUVEC) and fibroblasts modeled by human mesenchymal stem cells (MSCs). The concentration ranges selected for each drug and investigational agent were based upon clinically achievable concentrations if the clinical Cmax of the agent was known.
Compounds. The drugs and investigational agents: inavolisib (NSC800729), alpelisib (NSC765974), duvelisib (NSC772469), copanlisib (NSC816437), ipatasertib (NSC767898), afuresertib (NSC778305), talazoparib (NSC767125), sapanisertib (NSC764658), selumetinib (NSC741078), tovorafenib (DAY101, NSC766906), vemurafenib (NSC761431), ravoxertinib (NSC781343), sotorasib (NSC818433), MRTX1133 (NSC 836407), abemaciclib (NSC 768073), palbociclib (NSC758247), venetoclax (NSC 766270), SY5609 (NSC837396), enzalutamide (NSC755605), and darolutamide (NSC825331), were obtained from the National Cancer Institute (NCI) Developmental Therapeutics Program Chemical Repository. The FDA-approved anticancer drug set is available from the NCI Developmental Therapeutics Program. […] The stock solutions were prepared in dimethyl sulfoxide (DMSO, Sigma-Aldrich, St. Louis, MO, cat. D2650) at 800-fold the tested concentration and stored at -70 degrees C prior to their use. All drugs and investigational agents were tested over a range starting from a high concentration at or near the clinical Cmax and decreasing in half-log increments. If the clinical Cmax for an agent had not been determined, the highest concentration tested was 10 microM.
Cell Culture. All cells were maintained in an incubator at 37 degrees C and 5% CO2 with 95% humidity. The PDC lines were cultured according to standard operating procedures established by the NCI PDMR (https://pdmr.cancer.gov/sops/default.htm). All PDCs were thawed and cultured in Matrigel-coated flasks prepared with a working solution of 1X Ham's F-12 nutrient mix, without supplementation (Invitrogen, Waltham, MA, cat. 11765054), 100 U/mL penicillin-streptomycin (Invitrogen, cat. 15140122), and 2.5% Matrigel (Corning Inc., Corning, NY, cat. 354248) for the first three passages. The 354836-022-R-J1-PDC, 475296-252-R-J1-PDC, and 997726-040-R-J2-PDC lines were cultured in 6A media, which includes advanced DMEM/F-12 (Thermo Fisher Scientific, cat. 12634028), 10 mM HEPES (Thermo Fisher Scientific, cat. 15630080), 1X GlutaMAX supplement (Thermo Fisher Scientific, cat. 35050061), 0.1 mg/mL primocin (InvivoGen, San Diego, CA, cat. ant-pm-2), 10% defined fetal bovine serum, heat inactivated (HyClone Laboratories Inc., Logan, UT, cat. SH30070.03HI), 50% L-WRN conditioned media (ATCC, cat. CRL-3276), 1.25 mM N-Acetyl-L-cysteine (Sigma-Aldrich, cat. A9165), 10 mM nicotinamide (Sigma-Aldrich, cat. N0636), 1X B-27 supplement (Thermo Fisher Scientific, cat. 17504044), 1X N-2 supplement (Thermo Fisher Scientific, cat. 17502048), and 10 microM Y-27632 dihydrochloride (Tocris Bioscience, Bristol, United Kingdom, cat. 1254). The 624824-186-R-J2-PDC line was cultured in 6C/Colon 1B media, which includes all 6A media components plus 50 ng/mL human EGF recombinant protein (Thermo Fisher Scientific, cat. PHG0311). […]

[1] = second compound 0.00316 µM, first compound 0.0316 µM
[2] = second compound 0.00316 µM, first compound 0.1 µM
[3] = second compound 0.01 µM, first compound 0.0316 µM
[4] = second compound 0.01 µM, first compound 0.1 µM
[5] = second compound 0.0316 µM, first compound 0.0316 µM
[6] = second compound 0.0316 µM, first compound 0.1 µM
[7] = second compound 0.1 µM, first compound 0.0316 µM
[8] = second compound 0.1 µM, first compound 0.1 µM
[9] = second compound 0.316 µM, first compound 0.0316 µM
[10] = second compound 0.316 µM, first compound 0.1 µM
[11] = second compound 1 µM, first compound 0.0316 µM
[12] = second compound 1 µM, first compound 0.1 µM
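Note: spheroids exposed to agents for 7 days before the viability read.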

For `CC(C)n1nc(-c2ccc3oc(N)nc3c2)c2c(N)ncnc21` + CC(Nc1ccc2c(c1)OCCn1cc(N3C(=O)OCC3C(F)F)nc1-2)C(N)=O, the IC50 (second compound 0.00316 µM) was 30 nM, the IC50 (second compound 0.01 µM) was 24.6 nM and the IC50 (second compound 0.0316 µM) was 7.16 nM. It also gave an IC50 (second compound 0.1 µM) of 0.331 nM, an IC50 (second compound 0.316 µM) of under 0.316 nM and an IC50 (second compound 1 µM) of under 0.316 nM. The viability, T/C (second compound 0.00316 µM, first compound 0.000316 µM) was 96.5%, the viability, T/C (second compound 0.00316 µM, first compound 0.001 µM) was 88.1% and the viability, T/C (second compound 0.00316 µM, first compound 0.00316 µM) was 75.4%. The viability, T/C (second compound 0.00316 µM, first compound 0.01 µM) was 72.1%, the viability, T/C [1] was 50.5% and the viability, T/C [2] was 16.6%. For the same compound, the viability, T/C (second compound 0.01 µM, first compound 0.000316 µM) was 85.5%, the viability, T/C (second compound 0.01 µM, first compound 0.001 µM) was 76.4% and the viability, T/C (second compound 0.01 µM, first compound 0.00316 µM) was 75%. The viability, T/C (second compound 0.01 µM, first compound 0.01 µM) was 69.8%, the viability, T/C [3] was 44.2% and the viability, T/C [4] was 19.6%. It also gave a viability, T/C (second compound 0.0316 µM, first compound 0.000316 µM) of 61.9%, a viability, T/C (second compound 0.0316 µM, first compound 0.001 µM) of 60.8% and a viability, T/C (second compound 0.0316 µM, first compound 0.00316 µM) of 54.4%. The viability, T/C (second compound 0.0316 µM, first compound 0.01 µM) was 49%, the viability, T/C [5] was 31.4% and the viability, T/C [6] was 16.6%. It also gave a viability, T/C (second compound 0.1 µM, first compound 0.000316 µM) of 52.2%, a viability, T/C (second compound 0.1 µM, first compound 0.001 µM) of 41.2% and a viability, T/C (second compound 0.1 µM, first compound 0.00316 µM) of 37.5%. The viability, T/C (second compound 0.1 µM, first compound 0.01 µM) was 32%, the viability, T/C [7] was 22.1% and the viability, T/C [8] was 11.5%. It also gave a viability, T/C (second compound 0.316 µM, first compound 0.000316 µM) of 31.9%, a viability, T/C (second compound 0.316 µM, first compound 0.001 µM) of 20.6% and a viability, T/C (second compound 0.316 µM, first compound 0.00316 µM) of 24.8%. The viability, T/C (second compound 0.316 µM, first compound 0.01 µM) was 15.8%, the viability, T/C [9] was 14.4% and the viability, T/C [10] was 10.2%. The viability, T/C (second compound 1 µM, first compound 0.000316 µM) was 17.4%, the viability, T/C (second compound 1 µM, first compound 0.001 µM) was 17.7% and the viability, T/C (second compound 1 µM, first compound 0.00316 µM) was 13.9%. The viability, T/C (second compound 1 µM, first compound 0.01 µM) was 11.2%, the viability, T/C [11] was 11.5% and the viability, T/C [12] was 5.87%.
In the case of `CCCS(=O)(=O)Nc1ccc(F)c(C(=O)c2c[nH]c3ncc(-c4ccc(Cl)cc4)cc23)c1F` + CC(Nc1ccc2c(c1)OCCn1cc(N3C(=O)OCC3C(F)F)nc1-2)C(N)=O, the IC50 (second compound 0.00316 µM) is reported as 4590 nM, the IC50 (second compound 0.01 µM) is reported as 4710 nM and the IC50 (second compound 0.0316 µM) is reported as 4240 nM. The IC50 (second compound 0.1 µM) was under 31.6 nM, the IC50 (second compound 0.316 µM) was under 31.6 nM and the IC50 (second compound 1 µM) was under 31.6 nM. The viability, T/C [1] was 91.2%, the viability, T/C [2] was 90.9% and the viability, T/C (second compound 0.00316 µM, first compound 0.316 µM) was 89%. The viability, T/C (second compound 0.00316 µM, first compound 1 µM) was 100%, the viability, T/C (second compound 0.00316 µM, first compound 3.16 µM) was 70.2% and the viability, T/C (second compound 0.00316 µM, first compound 10 µM) was 8.07%. The viability, T/C [3] was 87.3%, the viability, T/C [4] was 90% and the viability, T/C (second compound 0.01 µM, first compound 0.316 µM) was 89.5%. For the same compound, the viability, T/C (second compound 0.01 µM, first compound 1 µM) was 93.9%, the viability, T/C (second compound 0.01 µM, first compound 3.16 µM) was 70.3% and the viability, T/C (second compound 0.01 µM, first compound 10 µM) was 11.9%. For the same compound, the viability, T/C [5] was 68.5%, the viability, T/C [6] was 64.3% and the viability, T/C (second compound 0.0316 µM, first compound 0.316 µM) was 64.4%. The viability, T/C (second compound 0.0316 µM, first compound 1 µM) was 66.8%, the viability, T/C (second compound 0.0316 µM, first compound 3.16 µM) was 63.7% and the viability, T/C (second compound 0.0316 µM, first compound 10 µM) was 9.98%. For the same compound, the viability, T/C [7] was 36.1%, the viability, T/C [8] was 42.6% and the viability, T/C (second compound 0.1 µM, first compound 0.316 µM) was 43.9%. It also gave a viability, T/C (second compound 0.1 µM, first compound 1 µM) of 48.2%, a viability, T/C (second compound 0.1 µM, first compound 3.16 µM) of 38.7% and a viability, T/C (second compound 0.1 µM, first compound 10 µM) of 12.2%. For the same compound, the viability, T/C [9] was 29%, the viability, T/C [10] was 23.8% and the viability, T/C (second compound 0.316 µM, first compound 0.316 µM) was 28.5%. It also gave a viability, T/C (second compound 0.316 µM, first compound 1 µM) of 28.2%, a viability, T/C (second compound 0.316 µM, first compound 3.16 µM) of 26.6% and a viability, T/C (second compound 0.316 µM, first compound 10 µM) of 11%. For the same compound, the viability, T/C [11] was 15.2%, the viability, T/C [12] was 15% and the viability, T/C (second compound 1 µM, first compound 0.316 µM) was 17%. For the same compound, the viability, T/C (second compound 1 µM, first compound 1 µM) was 23%, the viability, T/C (second compound 1 µM, first compound 3.16 µM) was 20.7% and the viability, T/C (second compound 1 µM, first compound 10 µM) was 8.33%.
